Test results taken from patent publication US12661365B2, “Use of cannabidiol in the treatment of epilepsy” (priority 2020, dated 2026).

Tests used:
[1] = Phase 1 open-label drug-drug interaction trial: effect of repeated-dose CBD on the pharmacokinetics of a single dose of caffeine (plasma caffeine and paraxanthine, LC-MS/MS); assay type: in vivo, human; conditions: trough samples Days 23, 25 and 26, 750 mg CBD b.i.d., before coadministration on Day 26
From the text: The duration of the trial was approximately 10 weeks, which includes a screening period (up to 4 weeks), a treatment period (4 weeks) and a safety follow-up period (2 weeks). After signing the informed consent form (ICF), participants entered the screening period (Day −28 to −1). […] The subjects were resident in the CRU for 2 periods. […] They were discharged on Day 3 after completion of the assessments. On Day 3, the first dose of CBD was taken in the morning in the CRU, and on this day, the escalating doses of CBD were dispensed to subjects to be taken at home from Day 4 to Day 12. After discharge on Day 3, the subjects returned to the CRU for ambulatory visits on Days 12, 18, and 23. At these ambulatory visits, the maintenance doses of CBD were dispensed to subjects to be taken at home from Day 13 to Day 25 (the evening dose of Day 25 was taken in the CRU). The subjects were admitted again to the CRU in the afternoon of Day 25. […] The subjects were discharged on Day 28 after completion of the assessments. […]
Plasma concentration of CBD determined on the following days: 23, 25, and 26. These were determined using liquid chromatography and tandem mass spectrometry. […]

serum ALT = assay: Liver safety in the Phase 1 trial: serum liver chemistries (peak ALT versus ULN); assay type: in vivo, human
From the text: Clinical laboratory measurements of liver injury and function, the Upper Limit of Normal (ULN) values used are: 68 international units [IU]/L for ALT, 45 IU/L for aspartate aminotransferase (AST), 129 IU/L for alkaline phosphatase (ALP), 29 μmol/L for total bilirubin (TBL), and 59 IU/L for gamma-glutamyl transferase (GGT).
Drug induced liver injury (DILI) is when serum ALT exceeds 5×ULN.
In the above-outlined Phase 1 trial, abnormal liver chemistries were found for the subjects. This was unexpected as subjects were healthy adults receiving therapeutic equivalent doses of CBD used to treat Dravet Syndrome and Lennox-Gastaut Syndrome (1500 mg/day).
Measurements were performed at screening, on trial Days −1, 12, 18, 23, 27, and at follow-up.

[2] = healthy adults, CBD 1500 mg/day
[3] = healthy adults, CBD 1500 mg/day, 16 participants, ALT ULN 68 IU/L

**Q.** What does the source list for C=C(C)[C@@H]1CCC(C)=C[C@H]1c1c(O)cc(CCCCC)cc1O [CBD, Cannabidiol]?
**A.** trough plasma levels of CBD [1]: reached steady state; rate of abnormal liver chemistries in healthy volunteers (serum ALT; CBD at the doses used in this study): 44%; exposure time at which all ALT elevations occurred (serum ALT; exposure to cannabidiol): 2-4 weeks; participants with peak ALT >5×ULN (international consensus criteria for DILI) (serum ALT; [2]): 5 (31%) participants; participants with peak serum ALT >2×ULN (serum ALT; [2]): 6 (38%) participants; participants with peak serum ALT ≥2 × ULN (serum ALT; [3]): 6 (38%); participants with peak serum ALT ≥3 × ULN (serum ALT; [3]): 5 (31%); participants with peak serum ALT ≥5 × ULN (serum ALT; [3]): 5 (31%); participants with peak serum ALT ≥10 × ULN (serum ALT; [3]): 0 (0); participants with peak serum ALT ≥20 × ULN (serum ALT; [3]): 0 (0); participants with peak serum ALT >ULN (serum ALT; healthy adults, CBD up to 750 mg b.i.d. (1500 mg/day), 16 participants, ALT ULN 68 IU/L): 7 (44%); trial days between which all ALT elevations occurred (serum ALT; trial day): 18 to 27 days
